In patent US10323000B2, “Indole derivatives and their use in neurodegenerative diseases” (priority 2014, dated 2019):
Where two headings read alike, the source gives them in different places.

Columns and labels:
human P2X7 receptor = human P2X7 receptor (Homo sapiens (Human), UniProt Q99572); assay: Pore permeation assay (YO PRO dye uptake); assay type: cell-based
[1] = target: P2X7 (IL-1β release from THP-1 cells) (Homo sapiens (Human), UniProt Q99572); assay: IL-1β release assay; assay type: cell-based
P2X7 (IL-1β release from THP-1 cells), sequence (Q99572 whole entry): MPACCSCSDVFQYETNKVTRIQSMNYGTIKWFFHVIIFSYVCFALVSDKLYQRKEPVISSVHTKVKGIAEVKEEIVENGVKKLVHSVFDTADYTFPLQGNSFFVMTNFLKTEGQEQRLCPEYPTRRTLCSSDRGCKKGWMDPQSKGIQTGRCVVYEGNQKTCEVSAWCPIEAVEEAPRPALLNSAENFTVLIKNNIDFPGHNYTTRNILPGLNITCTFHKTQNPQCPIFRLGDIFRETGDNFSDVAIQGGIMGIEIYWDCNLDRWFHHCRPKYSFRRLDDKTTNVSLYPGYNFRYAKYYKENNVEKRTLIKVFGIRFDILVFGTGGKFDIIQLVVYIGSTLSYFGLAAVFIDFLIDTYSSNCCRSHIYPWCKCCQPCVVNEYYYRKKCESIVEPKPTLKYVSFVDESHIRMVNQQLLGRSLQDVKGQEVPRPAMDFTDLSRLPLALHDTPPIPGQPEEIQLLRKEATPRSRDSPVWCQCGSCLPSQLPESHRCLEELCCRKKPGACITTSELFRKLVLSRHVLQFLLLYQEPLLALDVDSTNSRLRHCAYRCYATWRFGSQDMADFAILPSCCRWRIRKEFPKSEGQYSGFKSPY
Protocol: IL-1β release assay: The activation of P2X7 by ATP leads to a fast transient activation of cells resulting in influx of Ca^2+ followed by conversion of pro-IL-1β to active IL-1β. The functional activity of P2X7 compounds was measured by the release of mature […] in the culture medium of THP-1 cells, detected by sandwich ELISA. […] THP-1 cells were harvested from the flask in 50 ml by centrifugation for 3 min at 100 g. The cells were resuspended to 2×10^5 cells/ml in medium supplemented with 0.5 μM PMA and incubated. The cells were washed and resuspended to 1.5×10^5 cells/ml in medium complemented with 10 ng/ml LPS, and the cells were primed for 4 h at 37° C., 5% CO2. After addition of 20 μL of prediluted test compounds, blank, standard and control reagents, cells were incubated for a further 20 min at 37° C. and stimulated with 0.8 mM BzATP for 30 minutes. The cells were centrifuged, supernatant was collected and the presence of mature IL-1β was detected using Dual human IL-1b kit following manufacturer's instruction. The tetrahydrobenzodiazepine analogs effectively modulated the activity of P2X7 in the cells as measured by the levels of pro-inflammatory cytokine IL-1β, which is released by the activation of P2X7 receptor.

[2] = HEK293 transfected with human P2X7, BzATP 10 uM, YO PRO dye uptake, read-out: hP2X7 IC50

human P2X7 receptor, sequence (Q99572 whole entry): as above

SMILES | IC50 (human P2X7 receptor) [nM] | IC50 [1] [nM] | IC50 (human P2X7 receptor; [2]) [nM]
O=C(NCC1CCCC(F)(F)C1)c1cn(C2COC2)c2cccc(Cl)c12 (racemic) [Compound 69, 4-chloro-N-((3,3-difluorocyclohexyl)methyl)-1-(oxetan-3-yl)-1H-indole-3-carboxamide] | 10 to 100 | 101 to 500 | 
O=C(NCC1(O)CCCC(F)(F)C1)c1cn(CC2CCN2)c2cccc(Cl)c12 (centres unmarked) [Compound 124, 1-(azetidin-2-ylmethyl)-4-chloro-N-((3,3-difluoro-1-hydroxycyclohexyl)methyl)-1H-indole-3-carboxamide] | 10 to 100 | 10 to 100 | 
C[C@H]1CCC[C@@](O)(CNC(=O)c2cn(CCC(F)F)c3cccc(Cl)c23)C1 [Compound 7] |  | 10 to 100 | < 10
CN(C)C(=O)Cn1cc(C(=O)NCC2(O)CCC(F)(F)CC2)c2c(Cl)cccc21 [Compound 205, 4-Chloro-1-dimethylcarbamoylmethyl-1H-indole-3-carboxylic acid (4,4-difluoro-1-hydroxy-cyclohexylmethyl)-amide] |  | 10 to 100 | < 10
O=C(NCC1CCC(F)(F)CC1)c1cn(C[C@@H]2CCCN2)c2cccc(Cl)c12 [Compound 153, (S)-4-chloro-N-((4,4-difluorocyclohexyl)methyl)-1-(pyrrolidin-2-ylmethyl)-1H-indole-3-carboxamide] |  | 10 to 100 | < 10
O=C(NCC1CCC(F)(F)CC1)c1cn(CC(F)(F)F)c2cccc(Cl)c12 [Compound 5, 4-chloro-N-((4,4-difluorocyclohexyl)methyl)-1-(2,2,2-trifluoroethyl)-1H-indole-3-carboxamide] | 10 to 100 | 101 to 500 | 
O=C(NCC1CCC(F)(F)CC1)c1cn(CC2(O)CC2)c2cccc(Cl)c12 [Compound 117, 4-chloro-N-((4,4-difluorocyclohexyl)methyl)-1-((1-hydroxycyclopropyl)methyl)-1H-indole-3-carboxamide] | 10 to 100 | 101 to 500 | 
O=C(NCC1CCC(F)(F)CC1)c1cn(CC(=O)N2CCCC2)c2cccc(Cl)c12 [Compound 185, 4-Chloro-1-(2-oxo-2-pyrrolidin-1-yl-ethyl)-1H-indole-3-carboxylic acid (4,4-difluoro-cyclohexylmethyl)-amide] | 10 to 100 | 10 to 100 | 
O=C(NCC1(O)CCCCC1)c1cn(C2COC2)c2cccc(Cl)c12 [Compound 58, 4-Chloro-1-oxetan-3-yl-1H-indole-3-carboxylic acid (1-hydroxy-cyclohexylmethyl)-amide] | 10 to 100 | 101 to 500 | 
O=C(NCC1(O)CCCC(F)(F)C1)c1cn(CC2CCOC2)c2cccc(Cl)c12 (centres unmarked) [Compound 146, 4-chloro-N-((3,3-difluoro-1-hydroxycyclohexyl)methyl)-1-((tetrahydrofuran-3-yl)methyl)-1H-indole-3-carboxamide] | 10 to 100 | 10 to 100 | 
O=C(NCC1(O)CCCC1)c1cn(C2COC2)c2cccc(Cl)c12 [Compound 81, 4-Chloro-1-oxetan-3-yl-1H-indole-3-carboxylic acid (1-hydroxy-cyclopentylmethyl)-amide] | 101 to 500 | 500 to 999 | 
O=C(NCC1CCC(F)(F)CC1)c1cn(CC(=O)N2CCCCC2)c2cccc(Cl)c12 [Compound 195, 4-Chloro-1-(2-oxo-2-piperidin-1-yl-ethyl)-1H-indole-3-carboxylic acid (4,4-difluoro-cyclohexylmethyl)-amide] | 10 to 100 | 101 to 500 | 
O=C(NCC1CCC(F)(F)CC1)c1cn(CC2CCO2)c2cccc(Cl)c12 (centres unmarked) [Compound 116, 4-chloro-N-((4,4-difluorocyclohexyl)methyl)-1-(oxetan-2-ylmethyl)-1H-indole-3-carboxamide] | 10 to 100 | 10 to 100 | 
O=C(NCC1CCC(C(F)(F)F)CC1)c1cn(C2COC2)c2cccc(Cl)c12 (centres unmarked) [Compound 53, 4-Chloro-1-oxetan-3-yl-1H-indole-3-carboxylic acid (4-trifluoromethyl-cyclohexylmethyl)-amide] | 10 to 100 | 101 to 500 | 
O=C(NC[C@@]1(O)CCCC(F)(F)C1)c1cn(C2COC2)c2cccc(Cl)c12 [Compound 84, (R)-4-chloro-N-((3,3-difluoro-1-hydroxycyclohexyl)methyl)-1-(oxetan-3-yl)-1H-indole-3-carboxamide] | 101 to 500 | 101 to 500 | 
O=C(NCC1CCC(F)(F)CC1)c1cn(C[C@@H]2CCCO2)c2cccc(Cl)c12 [Compound 132, (S)-4-chloro-N-((4,4-difluorocyclohexyl)methyl)-1-((tetrahydrofuran-2-yl)methyl)-1H-indole-3-carboxamide] | 10 to 100 | 10 to 100 | 
O=C(NCCC1CCCC1)c1cn(C2CCOC2)c2cccc(Cl)c12 (centres unmarked) [Compound 108, 4-Chloro-1-(tetrahydro-furan-3-yl)-1H-indole-3-carboxylic acid (2-cyclopentyl-ethyl)-amide] | 10 to 100 | 101 to 500 | 
C[C@@H]1CCC[C@](O)(CNC(=O)c2cn(CCC(F)F)c3cccc(Cl)c23)C1 [Compound 8, 4-Chloro-1-(3,3-difluoro-propyl)-1H-indole-3-carboxylic acid ((1R,3R)-1-hydroxy-3-methyl-cyclohexylmethyl)-amide] | 10 to 100 | 101 to 500 | 
O=C(NCC1(O)CCCC(F)(F)C1)c1cn(CCN2CCCC2)c2cccc(Cl)c12 (centres unmarked) [Compound 178, 4-chloro-N-((3,3-difluoro-1-hydroxycyclohexyl)methyl)-1-(2-(pyrrolidin-1-yl)ethyl)-1H-indole-3-carboxamide] | 10 to 100 | 10 to 100 | 
O=C(NCC1(O)CCCCCC1)c1cn(C2COC2)c2cccc(Cl)c12 [Compound 65, 4-Chloro-1-oxetan-3-yl-1H-indole-3-carboxylic acid (1-hydroxy-cycloheptylmethyl)-amide] | 10 to 100 | 101 to 500 | 
O=C(NCC1CCC(F)(F)CC1)c1cn(CC2CC(F)(F)C2)c2cccc(Cl)c12 [Compound 127, 4-chloro-1-((3,3-difluorocyclobutyl)methyl)-N-((4,4-difluorocyclohexyl)methyl)-1H-indole-3-carboxamide] | 10 to 100 | 500 to 999 | 
O=C(NCC1CCC(F)(F)CC1)c1cn(CC2CCCO2)c2cccc(Cl)c12 (centres unmarked) [Compound 144, 4-chloro-N-((4,4-difluorocyclohexyl)methyl)-1-((tetrahydrofuran-2-yl)methyl)-1H-indole-3-carboxamide] | 10 to 100 | 101 to 500 | 
O=C(NCC1(O)CCCC(F)(F)C1)c1cn(C2COC2)c2cccc(Cl)c12 (racemic) [Compound 86, 4-chloro-N-((3,3-difluoro-1-hydroxycyclohexyl)methyl)-1-(oxetan-3-yl)-1H-indole-3-carboxamide] | 10 to 100 | 10 to 100 | 
O=C(NCC1CCCC(F)(F)C1)c1cn(CCC(F)F)c2cccc(Cl)c12 (centres unmarked) [Compound 9, 4-Chloro-1-(3,3-difluoro-propyl)-1H-indole-3-carboxylic acid (3,3-difluoro-cyclohexylmethyl)-amide] |  | 101 to 500 | < 10
COCCn1cc(C(=O)NCC2(O)CCC(F)(F)CC2)c2c(Cl)cccc21 [Compound 40, 4-chloro-N-((4,4-difluoro-1-hydroxycyclohexyl)methyl)-1-(2-methoxyethyl)-1H-indole-3-carboxamide] | 10 to 100 | 10 to 100 | 
